Data on 31 molecules can be found in US7875647B2, “Heteroaryl-pyrazole derivatives as cannabinoid CB1 receptor antagonists” (Green Cross Corporation, priority 2006, dated 2011).

Read-outs that look alike come from different tables or passages of the source.

For the test, the target named is T1, Cannabinoid-1 receptor (CB1R) (Rattus norvegicus, UniProt P20272).
T1 construct: The tissue obtained from the brain of SD rats was homogenized; from tissue; host or cells: brain of SD rats (membrane pellet of the homogenate)
T1 sequence (P20272 whole entry): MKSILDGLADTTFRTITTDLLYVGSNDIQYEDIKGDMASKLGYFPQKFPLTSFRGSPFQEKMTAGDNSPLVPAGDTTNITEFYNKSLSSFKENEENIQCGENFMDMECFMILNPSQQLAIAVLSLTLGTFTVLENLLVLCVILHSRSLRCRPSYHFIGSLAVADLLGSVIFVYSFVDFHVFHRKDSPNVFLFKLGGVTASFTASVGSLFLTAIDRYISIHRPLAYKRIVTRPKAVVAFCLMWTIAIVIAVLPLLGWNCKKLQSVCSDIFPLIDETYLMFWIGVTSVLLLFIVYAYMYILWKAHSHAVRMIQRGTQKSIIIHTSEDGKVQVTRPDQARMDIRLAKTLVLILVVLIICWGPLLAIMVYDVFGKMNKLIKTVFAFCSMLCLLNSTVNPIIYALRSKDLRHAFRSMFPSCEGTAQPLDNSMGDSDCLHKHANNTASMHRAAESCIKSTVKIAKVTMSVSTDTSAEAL
The test is described as follows: Cannabinoid-1 receptor (CB1R) binding affinity assay ([3H]CP-55940, rat CB-1 receptor binding protocol). The note with it: brain tissue of SD rats, [3H]CP-55940, 30° C. 60 min.

`CC(C)(C)c1nnc(-c2nn(-c3ccc(Cl)cc3Cl)c(-c3ccc(Br)cc3)c2Cn2cnnn2)o1` [Example 303, 2-(4-((1H-tetrazol-1-yl)methyl)-5-(4-bromophenyl)-1-(2,4-dichlorophenyl)-1H-pyrazol-3-yl)-5-tert-butyl-1,3,4-oxadiazole]: under “read-out: IC50”, the IC50 turned out to be 12 nM. Regarding `CCc1c(-c2nnc(C(C)(C)C)s2)nn(-c2ccc(Cl)cc2Cl)c1-c1ccc(Cl)cc1` [Example 389, 2-tert-butyl-5-(5-(4-chlorophenyl)-1-(2,4-dichlorophenyl)-4-ethyl-1H-pyrazol-3-yl)-1,3,4-thiadiazole], the concentration for half-maximal inhibition (IC50) (read-out: IC50) turned out to be 11.1 nM. Same read-out and setting: for `Cc1c(-c2nnn(Cc3ccoc3)n2)nn(-c2ccc(Cl)cc2Cl)c1-c1ccc(Cl)cc1` [Example 596, 5-(5-(4-Chlorophenyl)-1-(2,4-dichlorophenyl)-4-methyl-1H-pyrazol-3-yl)-2-(furan-3-ylmethyl)-2H-tetrazole] the value was 195 nM; for `CCc1c(-c2nnc(C3(C)CC3)s2)nn(-c2ccc(Cl)cc2Cl)c1-c1ccc(Cl)cc1` [Example 484, 2-(5-(4-chlorophenyl)-1-(2,4-dichlorophenyl)-4-ethyl-1H-pyrazol-3-yl)-5-(1-methylcyclopropyl)-1,3,4-thiadiazole], 31.5 nM. The same measure, in the same setting: the same measure for `CC(F)c1c(-c2nnc(C(C)(C)C)o2)nn(-c2ccc(Cl)cc2Cl)c1-c1ccc(Cl)cc1` (stereo not shown) [Example 210, 2-tert-butyl-5-(5-(4-chlorophenyl)-1-(2,4-dichlorophenyl)-4-(1-fluoroethyl)-1H-pyrazol-3-yl)-1,3,4-oxadiazole]: 14.1 nM; for `Cc1c(-c2ncc(C(C)(C)C)s2)nn(-c2ccc(Cl)cc2Cl)c1-c1ccc(Cl)cc1` [Example 649, 5-tert-butyl-2-(5-(4-chlorophenyl)-1-(2,4-dichlorophenyl)-4-methyl-1H-pyrazol-3-yl)thiazole]: 12.7 nM. Turning to `CCc1c(-c2nnc(C3(c4ccccc4)CC3)o2)nn(-c2ccc(Cl)cc2Cl)c1-c1ccc(Br)cc1` [Example 177, 2-(5-(4-bromophenyl)-1-(2,4-dichlorophenyl)-4-ethyl-1H-pyrazol-3-yl)-5-(1-phenylcyclopropyl)-1,3,4-oxadiazole], the IC50 (IC50(nM)) stood at 3.01 nM. Turning to `Cc1c(-c2nnc(C3CCC3)s2)nn(-c2ccc(Cl)cc2Cl)c1-c1cccc(Cl)c1` [Example 436, 2-(5-(3-chlorophenyl)-1-(2,4-dichlorophenyl)-4-methyl-1H-pyrazol-3-yl)-5-cyclobutyl-1,3,4-thiadiazole], the IC50 (read-out: IC50) turned out to be 893 nM.

For `Cc1c(-c2nnc(C(C)(C)c3ccccc3)s2)nn(-c2ccccc2Cl)c1-c1ccc(Cl)cc1` [Example 416, 2-(1-(2-chlorophenyl)-5-(4-chlorophenyl)-4-methyl-1H-pyrazol-3-yl)-5-(2-phenylpropan-2-yl)-1,3,4-thiadiazole], the half-maximal inhibitory concentration (IC50) (read-out: IC50) came out at 9.27 nM. For the molecule `Cc1c(-c2nc(C3CC3)n(C)n2)nn(-c2ccc(Cl)cc2Cl)c1-c1ccc(Cl)cc1` [Example 628, 3-(5-(4-chlorophenyl)-1-(2,4-dichlorophenyl)-4-methyl-1H-pyrazol-3-yl)-5-cyclopropyl-1-methyl-1H-1,2,4-triazole], the IC50 (read-out: IC50) came to 904 nM. On to `Cc1c(-c2nnc(C3CCC3)s2)nn(-c2ccc(Cl)cc2Cl)c1-c1ccc(Cl)cc1` [Example 345, 2-(5-(4-chlorophenyl)-1-(2,4-dichlorophenyl)-4-methyl-1H-pyrazol-3-yl)-5-cyclobutyl-1,3,4-thiadiazole], for which the IC50 (read-out: IC50) came out at 4.08 nM. On to `Cc1c(-c2nnc(C(C)(C)C3CCCCC3)s2)nn(-c2ccc(Cl)cc2Cl)c1-c1ccc(Cl)cc1` [Example 394, 2-(5-(4-chlorophenyl)-1-(2,4-dichlorophenyl)-4-methyl-1H-pyrazol-3-yl)-5-(2-cyclohexylpropan-2-yl)-1,3,4-thiadiazole], for which the IC50 (read-out: IC50) worked out at 13.9 nM.

On to `Cc1c(-c2nnc(C3CCCO3)o2)nn(-c2ccc(Cl)cc2Cl)c1-c1ccc(Cl)cc1` (stereo not shown) [Example 25, 2-(5-(4-Chlorophenyl)-1-(2,4-dichlorophenyl)-4-methyl-1H-pyrazol-3-yl)-5-(tetrahydrofuran-2-yl)-1,3,4-oxadiazole], for which the IC50 (read-out: IC50) turned out to be 60 nM. The same measure, in the same setting: for `CCCCC(OCc1ccccc1)c1nnc(-c2nn(-c3ccc(Cl)cc3Cl)c(-c3ccc(Cl)cc3)c2C)o1` (stereo not shown) [Example 236, 2-(1-(benzyloxy)pentyl)-5-(5-(4-chlorophenyl)-1-(2,4-dichlorophenyl)-4-methyl-1H-pyrazol-3-yl)-1,3,4-oxadiazole] the value was 177 nM; for `CC(O)c1c(-c2nnc(C(C)(C)C)o2)nn(-c2ccc(Cl)cc2Cl)c1-c1ccc(Cl)cc1` (stereo not shown) [Example 207, 1-(3-(5-tert-butyl-1,3,4-oxadiazol-2-yl)-5-(4-chlorophenyl)-1-(2,4-dichlorophenyl)-1H-pyrazol-4-yl)ethanol], 10.1 nM; for `Cc1c(-c2nnnn2C2CCC2)nn(-c2ccc(Cl)cc2Cl)c1-c1ccc(Cl)cc1` [Example 600, 5-(5-(4-Chlorophenyl)-1-(2,4-dichlorophenyl)-4-methyl-1H-pyrazol-3-yl)-1-cyclobutyl-1H-tetrazole], 42.3 nM. Same read-out and setting: the same measure for `CCc1c(-c2nnc(C3(c4ccc(OC)cc4)CC3)o2)nn(-c2ccc(Cl)cc2Cl)c1-c1ccc(Cl)cc1` [Example 152, 2-(5-(4-chlorophenyl)-1-(2,4-dichlorophenyl)-4-ethyl-1H-pyrazol-3-yl)-5-(1-(4-methoxyphenyl)cyclopropyl)-1,3,4-oxadiazole]: 5.62 nM; for `CC(C)c1c(-c2nnc(C3(C(F)(F)F)CC3)o2)nn(-c2ccc(Cl)cc2Cl)c1-c1ccc(Cl)cc1` [Example 190, 2-(5-(4-chlorophenyl)-1-(2,4-dichlorophenyl)-4-isopropyl-1H-pyrazol-3-yl)-5-(1-(trifluoromethyl)cyclopropyl)-1,3,4-oxadiazole]: 15 nM; for `Cc1c(-c2cc(C(C)(C)C)on2)nn(-c2ccc(Cl)cc2Cl)c1-c1ccc(Cl)cc1` [Example 650, 5-tert-butyl-3-(5-(4-chlorophenyl)-1-(2,4-dichlorophenyl)-4-methyl-1H-pyrazol-3-yl)isoxazole]: 84.1 nM. Still for that read-out and setting: the same measure for `CCc1c(-c2nnc(C3(C#N)CC3)o2)nn(-c2ccc(Cl)cc2Cl)c1-c1ccc(Br)cc1` [Example 266, 1-(5-(5-(4-bromophenyl)-1-(2,4-dichlorophenyl)-4-ethyl-1H-pyrazol-3-yl)-1,3,4-oxadiazol-2-yl)cyclopropanecarbonitrile]: 15.5 nM. As for `CCc1c(-c2nnc(C3(c4ccccc4)CC3)s2)nn(-c2ccc(Cl)cc2Cl)c1-c1ccc(Cl)cc1` [Example 479, 2-(5-(4-chlorophenyl)-1-(2,4-dichlorophenyl)-4-ethyl-1H-pyrazol-3-yl)-5-(1-phenylcyclopropyl)-1,3,4-thiadiazole], the IC50 (read-out: IC50) was 6.56 nM. `Cc1c(-c2ncc(C3CCCC3)o2)nn(-c2ccc(Cl)cc2Cl)c1-c1ccc(Cl)cc1` [Example 643, 2-(5-(4-chlorophenyl)-1-(2,4-dichlorophenyl)-4-methyl-1H-pyrazol-3-yl)-5-cyclopentyloxazole]: under “read-out: IC50”, the IC50 amounted to 65.5 nM.

Take `CC(C)(C)c1nnc(-c2nn(-c3ccc(Cl)cc3Cl)c(-c3ccc(Cl)cc3)c2Br)o1` [Example 338, 2-(4-bromo-5-(4-chlorophenyl)-1-(2,4-dichlorophenyl)-1H-pyrazol-3-yl)-5-tert-butyl-1,3,4-oxadiazole]: the IC50 (read-out: IC50) was 30.4 nM.

In the case of `Cc1c(-c2nnc(C3CCCC3)s2)nn(-c2ccc(Cl)cc2Cl)c1-c1ccc(Cl)cc1` [Example 346, 2-(5-(4-chlorophenyl)-1-(2,4-dichlorophenyl)-4-methyl-1H-pyrazol-3-yl)-5-cyclopentyl-1,3,4-thiadiazole], the IC50 (read-out: IC50) came out at 8.8 nM. Still for that read-out and setting: the same measure for `CC(C)c1c(-c2nnc(C3(c4ccc(Cl)cc4)CCC3)o2)nn(-c2ccc(Cl)cc2Cl)c1-c1ccc(Cl)cc1` [Example 182, 2-(5-(4-chlorophenyl)-1-(2,4-dichlorophenyl)-4-isopropyl-1H-pyrazol-3-yl)-5-(1-(4-chlorophenyl)cyclobutyl)-1,3,4-oxadiazole]: 22.5 nM; for `Cc1c(-c2nnc(C3(C)CC3)o2)nn(-c2ccc(Cl)cc2Cl)c1-c1ccc(Cl)cc1` [Example 275, 2-(5-(4-chlorophenyl)-1-(2,4-dichlorophenyl)-4-methyl-1H-pyrazol-3-yl)-5-(1-methylcyclopropyl)-1,3,4-oxadiazole]: 14.7 nM; for `Cc1c(-c2nnc(C3(C(F)(F)F)CCC3)o2)nn(-c2ccc(Cl)cc2Cl)c1-c1ccc(Cl)cc1` [Example 135, 2-(5-(4-chlorophenyl)-1-(2,4-dichlorophenyl)-4-methyl-1H-pyrazol-3-yl)-5-(1-(trifluoromethyl)cyclobutyl)-1,3,4-oxadiazole]: 16.3 nM. The same measure, in the same setting: for `CC(=O)SCc1c(-c2nnc(C(C)(C)C)o2)nn(-c2ccc(Cl)cc2Cl)c1-c1ccc(Cl)cc1` [Example 308, S-(3-(5-tert-butyl-1,3,4-oxadiazol-2-yl)-5-(4-chlorophenyl)-1-(2,4-dichlorophenyl)-1H-pyrazol-4-yl)methyl ethanethioate] the value was 20.7 nM; for `CC(C)(C)c1nnc(-c2nn(-c3ccc(Cl)cc3Cl)c(-c3ccc(Cl)cc3)c2C=O)o1` [Example 202, 3-(5-tert-butyl-1,3,4-oxadiazol-2-yl)-5-(4-chlorophenyl)-1-(2,4-dichlorophenyl)-1H-pyrazole-4-carbaldehyde], 36.2 nM; for `CCC(C)(C)c1nnc(-c2nn(-c3ccccc3Cl)c(-c3ccc(Br)cc3)c2C)s1` [Example 429, 2-(5-(4-bromophenyl)-1-(2-chlorophenyl)-4-methyl-1H-pyrazol-3-yl)-5-tert-pentyl-1,3,4-thiadiazole], 8.67 nM.

Turning to `CC(C)(C)c1nnc(-c2nn(-c3ccc(Cl)cc3Cl)c(-c3ccc(Br)cc3)c2COc2ccc(C(F)(F)F)cn2)s1` [Example 526, 2-(5-(4-bromophenyl)-1-(2,4-dichlorophenyl)-4-((5-(trifluoromethyl)pyridin-2-yloxy)methyl)-1H-pyrazol-3-yl)-5-tert-butyl-1,3,4-thiadiazole], the IC50 (read-out: IC50) worked out at 31.3 nM.

For orientation: IC50 means the concentration at which inhibition is half-maximal.
